Assays:
male mice = assay: Measurement of serum ALT, AST, TG and total cholesterol levels in ethanol-fed mice; assay type: in vivo; settings: 50 mg/kg oral with 3 g/kg ethanol daily for 2 weeks
Description: (§1) 50 mg/kg of ginsenoside F2 (indicated by GF2 in Drawing) dissolved in 3 g/kg of ethanol, together with a normal diet, were orally administered to 8-week-old male mice (weighing 25 g to 28 g) between 3 PM and 4 PM every day for 2 weeks. After 2 weeks, they were sacrificed, and the following experiment was performed.
Blood was collected from mouse abdominal aorta and centrifuged using a centrifuge at 3,300 rpm for 10 minutes to separate only the serum. The levels of ALT (alanine aminotransferase) and AST ([…]) in the serum were measured using a kit of IDEXX Laboratories (USA) in accordance with the manufacturer's instructions by VetTEST (IDEXX, USA). Further, 50 mg of the hepatic tissue was excised and ground, and then a chloroform-methanol (2:1) solution was added thereto, followed by centrifugation. The lipid components contained in the hepatic tissue were extracted, and the levels of triglyceride (TG) and total cholesterol in the extract solution were measured using a kit of IDEXX Laboratories (USA) in accordance with the manufacturer's instructions by VetTEST.

liver tissue = assay: Liver histological analysis (H&E, TUNEL, Oil-red O staining); assay type: in vivo, mice; settings: 50 mg/kg oral with 3 g/kg ethanol, 2 weeks
[1] = test system: hepatocytes separated from mouse liver; assay: Lipogenesis-related index in hepatocytes separated from mouse liver; assay type: in vivo; settings: EtOH+GF2 vs EtOH+Vehicle; FIG. 4a
Description: as §1

[2] = test system: hepatic stellate cells separated from mouse liver; assay: Lipogenesis-related index in hepatic stellate cells separated from mouse liver; assay type: in vivo; settings: EtOH+GF2 vs EtOH+Vehicle; FIG. 4b
Description: as §1

liver tissues = assay: Western blotting of proteins extracted from the liver tissues; assay type: in vivo, mice; settings: FIG. 4c
Description: as §1
Expression of fat oxidation-inducing pAMPK was increased and expression of lipogenic SREBP1c and FAS was reduced by administration of ginsenoside F2.

co-cultured hepatocytes = assay: Co-culture with ethanol: co-cultured hepatocytes (Western blotting, real-time PCR); assay type: cell-based, mice; settings: 100 mM ethanol 12 hours, then 30 μM for 6 or 12 hours
Description: (§2) During the culture, they were treated with 100 mM ethanol for 12 hours, and then 30 μM ginsenoside F2 for 6 hours or 12 hours.

[3] = test system: co-cultured hepatic stellate cells; assay: Co-culture with ethanol: co-cultured hepatic stellate cells; assay type: cell-based, mice; settings: 100 mM ethanol 12 hours, then 30 μM for 6 or 12 hours; FIG. 5d
Description: as §2

[4] = test system: human hepatocyte cell line HepG2A; assay: LXR-mediated fat synthesis in HepG2A (real-time PCR); assay type: cell-based
Description: To examine a fat synthesis inhibition mechanism of ginsenoside F2, human hepatocyte cell line HepG2A was treated with 30 μM ginsenoside F2, and 30 minutes later, further treated with 10 μM TO901317, which induces fat synthesis as an LXR agonist stimulating fatty acid synthesis, followed by culture for 9 hours.
Further, HepG2A was treated with ginsenoside F2 by varying its concentration from 0 μM to 100 μM, and cultured for 12 hours.

Hepatic stellate cells = Hepatic stellate cells treated with TO901317 (real-time PCR and Western blotting); assay type: cell-based; settings: 30 μM, 30 minutes later 10 μM TO901317, culture 12 hours
Description: Hepatic stellate cells were treated with 30 μM of ginsenoside F2, and 30 minutes later, further treated with 10 μM TO901317, followed by culture for 12 hours. FIGS. 5f and 5g show the results of real-time PCR and Western blotting of the cultured hepatic stellate cells.

[5] = test system: monocytes isolated from the liver; assay: Flow cytometry of monocytes / inflammatory cells isolated from the liver of ethanol-fed mice; assay type: in vivo; settings: 3 g/kg ethanol daily for 2 weeks
Description: (§3) Mice were fed with 3 g/kg of ethanol together with a normal diet every day for 2 weeks. In this regard, Group 1 (E+Veh) was fed with vehicle, and Group 2 (E+GF2) was fed with ginsenoside F2.
Thereafter, monocytes were isolated from the liver, and stained with the macrophage markers, CD11b and F4/80, followed by flow cytometry. As a result, treatment of ginsenoside F2 reduced a percentage of macrophage (FIG. 6a). Flow cytometry was also performed using the neutrophil markers CD11b and Gr-1. As a result, treatment of ginsenoside F2 reduced a percentage of neutrophil (FIG. 6b).
Further, inflammatory cells in the liver were stained with regulatory T cell (Treg) markers, CD4, CD25, and Foxp3. As a result, treatment of ginsenoside F2 increased regulatory T cells, and decreased Th17 cells (IL-17 and CD4 positive) which are one of proinflammatory cells.

isolated monocytes = assay: Real-time PCR of isolated hepatic monocytes of ethanol-fed mice; assay type: in vivo; settings: FIG. 6d
Text: as §3
(§4) Further, the isolated monocytes were subjected to real-time PCR. As a result, expression of the inflammatory cytokines TNF-α, IL-6, and IL-17 increased by alcohol was inhibited by ginsenoside F2, and expression of anti-inflammatory cytokine IL-10 was increased thereby (FIG. 6d). These effects are consistent with the results of ELISA of mouse serum (FIG. 6e).

mouse serum = assay: ELISA of mouse serum (cytokines); assay type: in vivo; settings: compared with real-time PCR results; FIG. 6e
Text: as §3, §4

Naive T cells = assay: Differentiation of naive T cells into IL-17-producing Th17 cells; assay type: cell-based, mice; settings: 0 μM to 30 μM
Description: Naive T cells were isolated from mice, and treated with 5 ng/mL TGF-β1 and 20 ng/mL IL-6, and then cultured in a CD3/28 antibody-coated dish for 3.5 days to differentiate the cells into proinflammatory Th17 cells (T helper 17 cells). In this regard, the cells were also treated with ginsenoside F2 by varying its concentration (0 μM to 30 μM), and markers for Th17 cells were examined, and the results are shown in FIGS. 7a to 7c. N represents naive T cells treated with none of TGF-β1, IL-6, and ginsenoside F2.

[6] = test system: IL-10-deficient male mice; assay: IL-10-deficient mice: serum levels and necrotic foci of liver tissue; assay type: in vivo; settings: 50 mg/kg oral with 3 g/kg ethanol daily for 2 weeks
Description: (§5) 8-week-old IL-10-deficient male mice (weighing 25 g to 28 g) were orally administered with 3 g/kg ethanol and 50 mg/kg ginsenoside F2, together with a normal diet, every day for 2 weeks (E+GF2). A control group was fed with an equal amount of ethanol and vehicle instead of ginsenoside F2 (E+Veh). 2 weeks later, the sera, liver tissues, and hepatic monocytes were obtained from the mice by autopsy. Thereafter, in the same manner as in Example 1. (1), the serum ALT, AST, TG, and cholesterol levels were measured, and necrotic foci were examined in the liver tissue to count the number of necrotic foci in two sections of the liver. In the hepatic monocytes, macrophage and neutrophil expression levels were examined by flow cytometry using F4/80 or Gr1 antigen marker.

hepatic monocytes = assay: IL-10-deficient mice: hepatic monocytes (flow cytometry, real-time PCR); assay type: in vivo
Description: as §5

[7] = test system: breast cancer stem cells (CSCs); settings: Mai T T et al. 2012; cited from earlier work
glioblastoma = settings: xenograft model in SD rats; Shin J Y et. al. 2012; cited from earlier work
[8] = 0 μM to 100 μM, cultured for 12 hours, FIG. 5f
[9] = 30 μM, 30 minutes later 10 μM TO901317, culture 9 hours, real-time PCR, FIG. 5e
[10] = 5 ng/mL TGF-β1 and 20 ng/mL IL-6, 3.5 days, FIGS. 7a and 7b
[11] = 50 mg/kg, 2 weeks, flow cytometry, FIGS. 8d and 8e
[12] = real-time PCR using monocytes, FIG. 8h

CC(C)=CCC[C@](C)(O[C@@H]1O[C@H](CO)[C@@H](O)[C@H](O)[C@H]1O)[C@H]1CC[C@]2(C)[C@@H]1[C@H](O)C[C@@H]1[C@@]3(C)CC[C@H](O[C@@H]4O[C@H](CO)[C@@H](O)[C@H](O)[C@H]4O)C(C)(C)[C@@H]3CC[C@]12C [ginsenoside F2]
total cholesterol level increased by alcohol (male mice; FIG. 2): reduced | liver injury index ALT level (male mice; FIG. 2(a)): did not significantly increase | AST level (male mice; FIG. 2(b)): lower | fatty liver index, TG level (male mice; FIG. 2(c)): reduced to the normal level | Triglyceride accumulation (Oil-red O staining) (liver tissue; FIG. 3a): reduced | cell damage (TUNEL staining) (liver tissue; FIG. 3a): reduced | ethanol-induced inflammation (H&E staining) (liver tissue; FIG. 3a): reduced | TUNEL-positive cell death caused by alcohol administration (statistical analysis) (liver tissue; FIG. 3b): remarkably reduced | triglycerides in the liver tissue (statistical analysis) (liver tissue; FIG. 3c): remarkably reduced | expression of ADH1 [1]: significantly reduced | expression of CB1R [1]: significantly reduced | expression of CYP2e1 [1]: significantly reduced | expression of FAS [1]: significantly reduced | expression of SREBP1c [1]: significantly reduced | expression of DAGL-α,β [2]: significantly reduced | fatty acid amide hydrolase (FAAH) expression [2]: significantly increased | Expression of fat oxidation-inducing pAMPK (liver tissues): increased | expression of lipogenic FAS (liver tissues): reduced | expression of lipogenic SREBP1c (liver tissues): reduced | expression of lipogenic FAS (co-cultured hepatocytes; Western blotting, FIG. 5b): decreased | expression of lipogenic SREBP1c (co-cultured hepatocytes; Western blotting, FIG. 5b): decreased | expression of lipolytic pAMPK (co-cultured hepatocytes; Western blotting, FIG. 5b): increased | expression of CB1R (co-cultured hepatocytes; real-time PCR, FIG. 5c): reduced | expression of FAS (co-cultured hepatocytes; real-time PCR, FIG. 5c): reduced | expression of SREBP1c (co-cultured hepatocytes; real-time PCR, FIG. 5c): reduced | expression of DAGL-α,β [3]: reduced | concentration at which an excellent inhibitory effect on SREBP1c and FAS expression was observed [4, 8]: ≥ 40 µM | expression of FAS [4, 8]: reduced | expression of SREBP1c [4, 8]: reduced | expression of FAS increased by LXR agonist TO901317 [4, 9]: inhibit | expression of SREBP1c increased by LXR agonist TO901317 [4, 9]: inhibit | expression of glutamate receptor mGluR1 or 5 (Hepatic stellate cells): significantly increased | Th17 cells (IL-17 and CD4 positive) ([5]; E+GF2 vs E+Veh): decreased | regulatory T cells (CD4, CD25, Foxp3) ([5]; E+GF2 vs E+Veh): increased | percentage of macrophage (CD11b, F4/80) ([5]; E+GF2 vs E+Veh, FIG. 6a): reduced | percentage of neutrophil (CD11b, Gr-1) ([5]; E+GF2 vs E+Veh, FIG. 6b): reduced | percentage of CD4 T cells ([5]; FIG. 6c): no significant effects | percentage of CD8 T cells ([5]; FIG. 6c): no significant effects | percentage of NK cells ([5]; FIG. 6c): no significant effects | percentage of NKT cells ([5]; FIG. 6c): no significant effects | expression of anti-inflammatory cytokine IL-10 (isolated monocytes): increased | expression of inflammatory cytokine IL-6 increased by alcohol (isolated monocytes): inhibited | expression of inflammatory cytokine IL-17 increased by alcohol (isolated monocytes): inhibited | expression of inflammatory cytokine TNF-α increased by alcohol (isolated monocytes): inhibited | cytokine effects (TNF-α, IL-6, IL-17, IL-10) by ELISA of mouse serum (mouse serum): consistent | IL-17-expressing Th17 cells (FACS) (Naive T cells; [10]): decreased | anti-inflammatory cytokine IL-10 (FACS) (Naive T cells; [10]): increased | Th17 cell-specific transcription factor RORγt (Naive T cells; real-time PCR, FIG. 7c): decreased | Th17 cell-specific transcription factor STAT3 (Naive T cells; real-time PCR, FIG. 7c): decreased | expression of Abca1 (Naive T cells; real-time PCR, FIG. 7c): decreased | ALT level ([6]; FIG. 8a): no significant effects | TG level ([6]; FIG. 8a): no significant effects | cholesterol level ([6]; FIG. 8a): no significant effects | necrotic foci of the liver tissue ([6]; FIGS. 8b and 8c): no great changes | other immune cells (hepatic monocytes; 50 mg/kg, 2 weeks, FIG. 8f): no significant effects | CD4+CD25+Foxp3+ regulatory T cells (hepatic monocytes; 50 mg/kg, 2 weeks, FIG. 8g): increased | expression of macrophage (F4/80) (hepatic monocytes; [11]): no significant effects | expression of neutrophil (Gr1) (hepatic monocytes; [11]): no significant effects | expression of Foxp3 (hepatic monocytes; [12]): increased | expression of inflammatory cytokine IL-6 (hepatic monocytes; [12]): increased | expression of inflammatory cytokine IL-17 (hepatic monocytes; [12]): increased | cell apoptosis in breast cancer stem cells [7]: induces cell apoptosis accompanied by autophagy | anti-cancer effects on glioblastoma (glioblastoma): exhibits anti-cancer effects
